Laboratory results from ChEMBL document CHEMBL3137667, “[Drug-induced liver injury; fourteenth updated edition of the bibliographic database of liver injuries and related drugs]” (Gastroenterol Clin Biol, 2004).

Experiments:
[1] = human
[2] = human, serum
[3] = human; remark: listed apart in the source
[4] = human; remark: listed apart in the source
[5] = Highest frequency of moderate liver toxicity observed during clinical trials, expressed as a percentage. [column '% BIOL' in source]; conditions: human
[6] = human, serum; remark: listed apart in the source
[7] = human; remark: listed apart in the source
[8] = Presence of at least one case with successful reintroduction. [column 'REINT' in source]; conditions: human
[9] = human, serum, 4383 h
[10] = human; remark: listed apart in the source
[11] = human; remark: listed apart in the source
[12] = human; remark: listed apart in the source
[13] = Highest frequency of acute liver toxicity observed during clinical trials, expressed as a percentage. [column '% AIGUE' in source]; conditions: human
[14] = human; remark: listed apart in the source
[15] = Times to onset, minimal and maximal, observed in the indexed observations. [column 'DELAI' in source]; conditions: human
[16] = human; remark: listed apart in the source
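For Hepatotoxicity (association with vascular disease) in this document: count of indexed literature references reporting vascular liver injury in humans, e.g. peliosis hepatitis, hepatic veno-occlusive disease or Budd-Chiari syndrome.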
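For Hepatotoxicity (benign tumour) in this document: value is a count of indexed literature references citing a benign tumour confirmed by histopathology.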
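For Hepatotoxicity (choleostasis) in this document: human cholestatic liver injury, shown by histopathology or by peak ALT or AST elevation over alkaline phosphatase ratio below 2, value counts indexed literature reports.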
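For Hepatotoxicity (chronic liver disease) in this document: chronic liver injury confirmed by histopathology or persistently raised serum aminotransferase activity beyond 6 months, value given as the count of indexed literature references.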
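For Hepatotoxicity (cirrhosis) in this document: value is a count of indexed literature references reporting cirrhosis confirmed by histopathology.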
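For Hepatotoxicity (cytolytic) in this document: human cytolytic liver injury, shown by histopathology or by a ratio above 5 of peak ALT or AST elevation to alkaline phosphatase elevation, value counts indexed references.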
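For Hepatotoxicity (granulomatous hepatitis) in this document: value is a count of indexed literature references reporting granulomatous liver disease confirmed by histopathology.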
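For Hepatotoxicity (malignant tumour) in this document: malignant tumour confirmed by histopathology, value gives the count of indexed literature references reporting it.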
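For Hepatotoxicity (severe hepatitis) in this document: human clinical data: severe hepatitis, meaning potentially life-threatening liver failure or clinically observed cases, the value counts how many indexed literature references report it.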
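For Hepatotoxicity (steatosis) in this document: steatosis confirmed by histopathology, value is the count of indexed references.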

Row | SMILES | Hepatotoxicity (choleostasis) [1] | Hepatotoxicity (acute) [2] | Hepatotoxicity (cytolytic) [3] | Hepatotoxicity (malignant tumour) [4] | Hepatotoxicity (moderate) [5] [%] | Hepatotoxicity (moderate) [6] | Hepatotoxicity (steatosis) [7] | Hepatotoxicity (successful reintroduction) [8] | Hepatotoxicity (chronic liver disease) [9] | Hepatotoxicity (cirrhosis) [10] | Hepatotoxicity (benign tumour) [11] | Hepatotoxicity (severe hepatitis) [12] | Hepatotoxicity (acute) [13] [%] | Hepatotoxicity (association with vascular disease) [14] | Hepatotoxicity (time to onset) [15] | Hepatotoxicity (granulomatous hepatitis) [16] | further results
1 | CC(=O)Oc1ccc(C(=C2CCCCC2)c2ccc(OC(C)=O)cc2)cc1 [CYCLOFENIL] | 2 | 5 | 3 | 0 | 55.6 | 8 | 0 | yes | 0 | 0 | 0 | 0 | 1.3 | 1 | 1 month - 5 months | 1 | 
2 | COc1ccc2c3c1O[C@H]1[C@@H](O)C=C[C@H]4[C@@H](C2)N(C)CC[C@@]341 [CODEINE] |  | 3 |  | 0 |  | 2 | 0 | yes | 0 | 0 | 0 |  |  | 0 | < 1 hour - 1.5 hours |  | Hepatotoxicity (choleostasis) ([1]; Liver): 0; Hepatotoxicity (cytolytic) ([3]; Liver): 2; Hepatotoxicity (moderate) ([5]; Liver): 0%; Hepatotoxicity (severe hepatitis) ([12]; Liver): 0; Hepatotoxicity (acute) ([13]; Liver): 0%; Hepatotoxicity (granulomatous hepatitis) ([16]; Liver): 1
3 | CCCCC(CC)COC(=O)CC(C(=O)OCC(CC)CCCC)S(=O)(=O)O (stereo not given) [DOCUSATE] | 0 | 0 | 0 | 0 | 0 | 1 | 0 | yes | 1 | 0 | 0 | 0 | 0 | 0 | 2 days - 1 year | 0 | 
4 | C[C@@H]1O[C@@H]1P(=O)(O)O [FOSFOMYCIN] | 0 | 1 | 1 | 0 | 23.8 | 8 | 0 | yes | 0 | 0 | 0 | 0 | 0 | 0 | 3 days - 4 days | 0 | 
5 | O=C1C(O)=C([C@H]2CC[C@H](c3ccc(Cl)cc3)CC2)C(=O)c2ccccc21 [ATOVAQUONE] | 0 | 2 | 2 | 0 | 16 | 9 | 0 | yes | 0 | 0 | 0 | 0 | 5.3 | 0 | 10 days - 6 weeks | 0 | 
6 | CC[C@H](C)[C@H]1NC(=O)[C@@H](NC(=O)[C@@H](CC(C)C)N(C)C(=O)[C@@H]2CCCN2C(=O)C(C)O)[C@@H](C)OC(=O)[C@H](Cc2ccc(OC)cc2)N(C)C(=O)[C@@H]2CCCN2C(=O)[C@H](CC(C)C)NC(=O)[C@@H](C)C(=O)[C@H](C(C)C)OC(=O)C[C@@H]1O (stereo not given in full) [DIDEMNIN B] | 1 | 2 | 0 | 0 | 32 | 3 | 0 | yes | 0 | 0 | 0 | 0 | 5.3 | 0 | 1 week | 0 | 
7 | CCc1c(C)[nH]c2c1C(=O)C(CN1CCOCC1)CC2 (stereo not given) [MOLINDONE] | 1 | 1 | 1 | 0 | 0 | 2 | 0 | yes | 0 | 0 | 0 | 0 | 0 | 0 | 1 month | 0 | 
8 | Cc1nccn1CC1CCc2c(c3ccccc3n2C)C1=O (stereo not given) [ONDANSETRON] | 0 | 1 | 0 | 0 | 33 | 23 | 0 | yes | 0 | 0 | 0 | 0 | 0 | 0 | 8 days - 9 days | 0 | 
9 | CCC1(c2ccccc2)C(=O)NC(=O)N(C)C1=O (stereo not given) [MEPHOBARBITAL] | 0 | 1 | 1 | 0 | 0 | 0 | 0 | yes | 0 | 0 | 0 | 0 | 0 | 0 | 3 months | 0 | 
10 | COc1cc(C(=O)NS(=O)(=O)c2ccccc2C)ccc1Cc1cn(C)c2ccc(NC(=O)OC3CCCC3)cc12 [ZAFIRLUKAST] | 0 | 8 | 8 | 0 | 4.1 | 4 | 0 | yes | 0 | 0 | 0 | 3 | 0.5 | 0 | 2 months - 1 year | 0 | 
